Series [1] has as its system carrageenan-induced rat paw edema. Description: carrageenan-induced rat paw edema. The class given is in vivo. As to conditions: i.p. 0.15 mmol/kg, 3.5 h post carrageenan, female rats, vs controls given carrageenan only; for inhibition in vivo at 150 µmol/kg: Rattus norvegicus, ip, 3.5 h. On the procedure:
Carrageenan-induced inflammation model has significant value for evaluating anti-inflammatory agents. Carrageenan administration causes an acute and local inflammatory response. In the early phase (0–1 h), bradykinin, histamine, tachykinins, complement and reactive oxygen and nitrogen species are involved, whereas prostaglandins and various cytokines such as IL-1β, TNF-α are released in the second phase, more than one hour after administration.
Total of 0.1 mL of an aqueous solution of carrageenan (1% w/v) was injected i.d. into the right hind paw of rats, with the left paw serving as control. The tested compounds (suspended in water with a few drops of Tween 80) were given i.p. (0.15 mmol/kg) 5 min before the carrageenan administration. After 3.5 h, the hind paws were excised and weighed separately. The produced edema was estimated as paw weight increase.
On the technique in general: Carrageenan injected into the paw causes an acute inflammation.

Series [2] has as its target T1, soybean LOX (Glycine max, UniProt P08170).
T1 construct: purchased Sigma (St. Louis, MO, USA)
T1 sequence (P08170 1-839): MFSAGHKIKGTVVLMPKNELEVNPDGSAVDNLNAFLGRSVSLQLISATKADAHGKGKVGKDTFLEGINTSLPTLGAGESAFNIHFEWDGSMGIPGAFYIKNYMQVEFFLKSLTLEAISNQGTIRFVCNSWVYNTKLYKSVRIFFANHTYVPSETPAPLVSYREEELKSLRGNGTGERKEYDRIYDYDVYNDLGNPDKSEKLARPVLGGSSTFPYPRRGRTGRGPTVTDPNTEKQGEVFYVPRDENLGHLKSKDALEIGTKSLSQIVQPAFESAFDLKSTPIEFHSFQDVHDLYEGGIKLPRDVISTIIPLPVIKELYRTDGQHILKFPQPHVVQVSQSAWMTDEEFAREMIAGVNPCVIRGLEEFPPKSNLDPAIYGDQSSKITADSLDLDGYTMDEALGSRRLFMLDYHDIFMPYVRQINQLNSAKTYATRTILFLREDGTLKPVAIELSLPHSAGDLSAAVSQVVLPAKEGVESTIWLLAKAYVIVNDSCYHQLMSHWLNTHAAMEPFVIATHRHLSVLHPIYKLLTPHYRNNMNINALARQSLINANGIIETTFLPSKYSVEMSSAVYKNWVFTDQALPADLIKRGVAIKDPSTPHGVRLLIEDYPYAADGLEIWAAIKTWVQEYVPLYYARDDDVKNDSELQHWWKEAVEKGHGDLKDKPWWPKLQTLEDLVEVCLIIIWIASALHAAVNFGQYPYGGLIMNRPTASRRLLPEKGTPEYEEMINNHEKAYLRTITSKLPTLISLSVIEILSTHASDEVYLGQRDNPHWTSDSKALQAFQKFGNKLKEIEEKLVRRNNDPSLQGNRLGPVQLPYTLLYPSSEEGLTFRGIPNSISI
The series is described as follows: inhibition of soybean lipoxygenase. The format is biochemical. As to conditions: for pIC50: after 7 min of incubation, sodium linoleate 100 μM, pH 9.0, 28 °C; for % inhibition of lipoxygenase: highest soluble concentration. On the procedure: Soybean LOX, because of structural and functional similarities with mammalian LOXs, is commonly used for the study of anti-inflammatory agents.
The reaction mixture contained (final concentration) the test compounds, dissolved in ethanol (10–300 μM), or the solvent (control), soybean LOX, dissolved in 0.9% NaCl solution (250 u/mL) and sodium linoleate (100 μM), in Tris–HCl buffer, pH 9.0. […] For the estimation of the type of inhibition, the above experiments were repeated, using 1 mM sodium linoleate, which is higher than the saturating substrate concentration.

The nature of series [3]: preliminary stability in acetone-water (TLC). The class given is physicochemical. As to conditions: 4:1 acetone-water, 1 mM, 37 °C, up to 72 h. On the procedure:
(§1) In a preliminary stability control experiment, compound 16, with the highest anti-inflammatory activity, was dissolved in an acetone-water mixture and incubated for 72 h at 37 °C. Samples were tested by thin layer chromatography (TLC) at the time of the preparation and after 2.5, 5, 24, 48, and 72 h. The same experiment was repeated, but plasma from a healthy rat was added, and tested by TLC at the time of preparation and after 24 h of incubation at 37 °C.
(§2) A solution of 16 in a 4:1 acetone–water mixture (1 mM) was prepared and 5 μL of this were applied on a TLC silica gel aluminum sheet and developed with petroleum ether-ethyl acetate (1:1), at the time of preparation and after 2.5, 5, 24, 48, and 72 h of incubation (37 °C). The same experiment was repeated, adding 1 mL of rat plasma. TLC was performed at the time of preparation and after 24 h.

Series [4] has as its system T2, ovine COX-1.
T2 construct: purchased Cayman Chemical Co., Ann Arbor, MI, USA
The series is described as follows: COX Inhibitor Screening Assay kit, COX-1. The class given is biochemical. As to conditions: compound 0.05 μM, arachidonic acid 0.1 μM. The text has this:
[…]. κ-Carrageenan and lipoxygenase type I-B from soybean were purchased from Sigma (St. Louis, MO, USA). COX inhibition was estimated using the “COX Inhibitor Screening Assay” kit (Cayman Chemical Co., Ann Arbor, MI, USA). For the in vivo experiments, female Wistar rats (160–180 g, 4–5 months old) were kept in the Centre of the School of Veterinary Medicine (EL54 BIO42), Aristotelian University of Thessaloniki, which is registered by the official state veterinary authorities (presidential degree 56/2013, in harmonization with the European Directive 2010/63/EEC). The Animal Ethics Committee of the Prefecture of Central Macedonia (no. 270079/2500) approved the experimental protocols.
(§3) The effect of compounds on COX-1 and COX-2 activity was measured using a commercial kit and applying the instructions of the manufacturer. The kit uses ovine COX-1 and human recombinant COX-2 enzymes. The assay measures PGF2a produced by SnCl2 reduction of COX-derived PGH2. The prostanoid product was quantified via enzyme immunoassay using a broadly specific antibody that binds to all the major prostaglandin compounds.

Series [5] can be described thus: preliminary stability with rat plasma (TLC). The class given is in vitro ADME. As to conditions: acetone-water with rat plasma added, 37 °C, 24 h. On the procedure: as §1, §2
In series [6] the test system is rat hepatic microsomal membranes. The series is described as follows: Fe(II)-ascorbate induced lipid peroxidation of rat hepatic microsomal membranes. As to conditions: 1 mM, after 45 min of incubation. How it is done:
Enzymatically inactivated rat hepatic microsomal membranes, rich in polyunsaturated fatty acids, were used and peroxidation was induced by Fe(II)-ascorbate. Compounds 21 and 22, expected to exert antioxidant activity due to the tyrosine phenolic group, were tested.
The peroxidation of heat-inactivated (90°, 90 s) rat liver microsomal fraction was induced by ascorbic acid (0.2 mM) and ferrous sulphate (10 μΜ). The studied compounds, in dimethylsulfoxide, were added at 1 mM. Aliquots were taken from the incubation mixture (37 °C) for 45 min. Lipid peroxidation was assessed spectrophotometrically (535/600 nm) as 2-thiobarbituric acid reactive material.

The test system of series [7] is T3, human recombinant COX-2.
T3 construct: purchased Cayman Chemical Co., Ann Arbor, MI, USA
Description: COX Inhibitor Screening Assay kit, COX-2. The format is biochemical. As to conditions: compound 0.05 μM, arachidonic acid 0.1 μM. How it is done: COX inhibition was estimated using the “COX Inhibitor Screening Assay” kit (Cayman Chemical Co., Ann Arbor, MI, USA).
as §3

pIC50: −log10 of the molar value. Marks after values point to notes of the source that are not given here.

For orientation: inhibition in vivo means the relative decrease from the control value, in per cent. Read a low inhibition in vivo as a response near the control. For orientation: melting point means the temperature, or range, at which the solid turns liquid. In general, pIC50 refers to the IC50 on a negative log10 scale, so that one unit is a factor of ten. High values mean a low IC50, low ones a high IC50.

As to `COC(=O)CCNC(=O)C(C)c1ccc(CC(C)C)cc1` (stereo not shown) [Compound 5a], in series [1], the inhibition in vivo at 150 µmol/kg was determined as 14%.

In turn, `COC(=O)C1CCCN1C(=O)C(C)c1ccc(CC(C)C)cc1` (stereo not shown) [Compound 8a] yielded an inhibition in vivo at 150 µmol/kg in series [1] of 20%.

`COC(=O)C(C)NC(=O)Cc1c[nH]c2ccccc12` (stereo not shown) [Compound 13a] displayed an inhibition in vivo at 150 µmol/kg in series [1] of 18%.

`COC(=O)C1CCCN1C(=O)Cc1c[nH]c2ccccc12` (stereo not shown) [Compound 14a, 1-(2-(1H-indol-3-yl)acetyl)pyrrolidine-2-carboxylic acid (14) methyl ester] had an inhibition in vivo at 150 µmol/kg in series [1] of 0%.

In the case of `COc1cc(COC(=O)CCNC(=O)C(C)c2ccc(CC(C)C)cc2)cc(OC)c1OC` (stereo not shown) [Compound 15, 3,4,5-Trimethoxybenzyl 3-(2-(4-isobutylphenyl)propanamido)propanoate], the melting point lay within 73 to 75 °C. This molecule came in with an inhibition in vivo at 150 µmol/kg in series [1] of 35%. Besides, in series [2], the pIC50 was 3.80.

Regarding `COc1cc(COC(=O)CCNC(=O)C(C)c2cccc(C(=O)c3ccccc3)c2)cc(OC)c1OC` (stereo not shown) [Compound 16, 3,4,5-Trimethoxybenzyl 3-(2-(3-benzoylphenyl)propanamido)propanoate], the “stability (hydrolysis, TLC)” value in series [3] and in series [5] was “not hydrolyzed” each time. Also, the “COX-1 % Inhibition” value in series [4] amounted to 28%. For the same molecule, the inhibition in vivo at 150 µmol/kg in series [1] was 91%. Also, the “% Edema Inhibition” value in series [1] is 91 *** %. Moreover, in series [2] (at 150 μΜ), the “% inhibition of lipoxygenase” value is 20%.

As to `COc1ccc2cc([C@H](C)C(=O)NCCC(=O)OCc3cc(OC)c(OC)c(OC)c3)ccc2c1` [Compound 17, (S)-3,4,5-trimethoxybenzyl 3-(2-(6-methoxynaphthalen-2-yl)propanamido)propanoate], the inhibition in vivo at 150 µmol/kg in series [1] was 23%. In series [2], the pIC50 was 4.39.

Molecule `COc1cc(COC(=O)C2CCCN2C(=O)C(C)c2ccc(CC(C)C)cc2)cc(OC)c1OC` (stereo not shown) [Compound 18] gave a melting point of 85 to 87 °C. Also, in series [1], the inhibition in vivo at 150 µmol/kg was 49%. This molecule showed a pIC50 in series [2] of 4.08.

Molecule `COc1cc(COC(=O)C2CCCN2C(=O)C(C)c2cccc(C(=O)c3ccccc3)c2)cc(OC)c1OC` (stereo not shown) [Compound 19, 3,4,5-Trimethoxybenzyl 1-(2-(3-benzoylphenyl)propanoyl)pyrrolidine-2 carboxylate] came in with an inhibition in vivo at 150 µmol/kg in series [1] of 51%. Further, the negative-log IC50 (pIC50) in series [2] is 3.85.

As to `COc1ccc2cc(C(C)C(=O)N3CCCC3C(=O)OCc3cc(OC)c(OC)c(OC)c3)ccc2c1` (stereo not shown) [Compound 20, 3,4,5-Trimethoxybenzyl1-(2-(6-methoxynaphthalen-2-yl)propanoyl) pyrrolidine-2-carboxylate], the melting point fell in the range of 50 to 53 °C. The inhibition in vivo at 150 µmol/kg in series [1] is 37%. The “% inhibition of lipoxygenase” value in series [2] (at 100 μΜ) was 40%.

Consider `COc1cc(COC(=O)C(Cc2ccc(O)cc2)NC(=O)C(C)c2ccc(CC(C)C)cc2)cc(OC)c1OC` (stereo not shown) [Compound 21, 3,4,5-Trimethoxybenzyl3-(4-hydroxyphenyl)-2-(2(4-isobutylphenyl)propanamido) propanoate], for which the melting point lay in the range of 86 to 88 °C. For the same molecule, in series [4], the “COX-1 % Inhibition” value is recorded as 51%. The molecule further showed an inhibition in vivo at 150 µmol/kg in series [1] of 67%. Also, the “effect against lipid peroxidation” value in series [6] is “poor”. Moreover, the pIC50 in series [2] is 4.19.

Regarding `COc1cc(COC(=O)C(Cc2ccc(O)cc2)NC(=O)C(C)c2cccc(C(=O)c3ccccc3)c2)cc(OC)c1OC` (stereo not shown) [Compound 22, 3,4,5-Trimethoxybenzyl 2-(2-(3-benzoylphenyl)propanamido)-3-(4-hydroxyphenyl) propanoate], the melting point lay in the range of 68 to 70 °C. The inhibition in vivo at 150 µmol/kg in series [1] came out at 59%. Moreover, the “effect against lipid peroxidation” value in series [6] is reported as “poor”. The pIC50 in series [2] was 4.07.

Regarding `COc1cc(COC(=O)C(C)NC(=O)Cc2c[nH]c3ccccc23)cc(OC)c1OC` (stereo not shown) [Compound 23, 3,4,5-Trimethoxybenzyl 2-(2-(1H-indol-3-yl)acetamido)propanoate], in series [1], the inhibition in vivo at 150 µmol/kg was determined as 40.5%. In addition, in series [2] (at 150 μΜ), the “% inhibition of lipoxygenase” value was found to be 15%.

Turning to `COc1cc(COC(=O)C2CCCN2C(=O)Cc2c[nH]c3ccccc23)cc(OC)c1OC` (stereo not shown) [Compound 24, 3,4,5-Trimethoxybenzyl1-(2-(1H-indol-3-yl)acetyl)pyrrolidine-2carboxylate], the melting point fell in the range of 58 to 60 °C. The inhibition in vivo at 150 µmol/kg in series [1] amounted to 0%. Further, in series [2], the pIC50 was 3.89.

In the case of `CC(C)Cc1ccc(C(C)C(=O)O)cc1` (stereo not shown) [Ibuprofen, reference compound], in series [4], the “COX-1 % Inhibition” value worked out at 68%. In series [1], the inhibition in vivo at 150 µmol/kg is 36% and the “% Edema Inhibition” value is listed as 36 ** %.

`O=C(O)Cc1c[nH]c2ccccc12` [Indole-3-acetic acid, reference compound]: in series [1], the inhibition in vivo at 150 µmol/kg was found to be 0% and the “% Edema Inhibition” value is “inactive”.

`CC(C(=O)O)c1cccc(C(=O)c2ccccc2)c1` (stereo not shown) [Ketoprofen]: the “COX-1 % Inhibition” value in series [4] was 94%. Also, the “COX-2 % Inhibition” value in series [7] was found to be 49%.

Take `COc1ccc2cc([C@H](C)C(=O)O)ccc2c1` [Naproxen]: the “COX-1 % Inhibition” value in series [4] was 34%; in series [4] (listed as naproxen) it was “mild activity”. The inhibition in vivo at 150 µmol/kg in series [1] is 11%. In addition, the “COX-2 % Inhibition” value is on record as 17% in series [7] and “weak inhibitor” in series [7] (listed as naproxen).

Source of the values: publication PMC9000480, “Enhancement of the Anti-Inflammatory Activity of NSAIDs by Their Conjugation with 3,4,5-Trimethoxybenzyl Alcohol” (Molecules, 2022).
